In patent US20240050428A1 (Cullgen (Shanghai), Inc., priority 2020, published 2024):
Like-named read-outs stand apart in the source and are kept apart here.

Tests used:
MOLM-13 cells = test: Cell viability assay (CellTiter-Glo) in MOLM-13 cells, alone or with gilteritinib; assay type: cell-based; conditions: Homo sapiens, MOLM-13, 72 h, MOLM-13 cells, three days, CellTiter-Glo
MV4;11 cells = test: Cell viability assay (CellTiter-Glo) in MV4;11 cells, alone or with gilteritinib; assay type: cell-based; conditions: Homo sapiens, MV4-11, 72 h, MV4;11 cells, three days, CellTiter-Glo, read-out: MV4
[1] = compound alone (without gilteritinib), read-out: MOLM-13 IC50
[2] = compound with gilteritinib 20 nM, read-out: MOLM-13 IC50 gilteritinib
[3] = compound alone (without gilteritinib), 11 IC50
[4] = compound with gilteritinib 10 nM, 11 IC50 gilteritinib

`CN1CC(c2cccc(-c3cn([C@H]4C[C@H](CNc5ccc6c(c5)C(=O)N(C5CCC(=O)NC5=O)C6=O)C4)nc3C3CC3)n2)C1` (stereo partly drawn) [GS-619, 5-(((trans-3-(3-Cyclopropyl-4-(6-(1-methylazetidin-3-yl)pyridin-2-yl)-1H-pyrazol-1-yl)cyclobutyl)methyl)amino)-2-(2,6-dioxopiperidin-3-yl)isoindoline-1,3-dione] was tested, and the IC50 (MOLM-13 cells; [1]) was > 1000 nM, the IC50 (MOLM-13 cells; [2]) was > 1000 nM and the IC50 (MV4;11 cells; [3]) was > 1000 nM. The IC50 (MV4;11 cells; [4]) was > 1000 nM.
`CNc1cccnc1-c1cn([C@H]2C[C@H](CNc3ccc4c(c3)C(=O)N(C3CCC(=O)NC3=O)C4=O)C2)nc1C1CC1` (stereo partly drawn) [GS-620, 5-(((trans-3-(3-Cyclopropyl-4-(3-(methylamino)pyridin-2-yl)-1H-pyrazol-1-yl)cyclobutyl)methyl)amino)-2-(2,6-dioxopiperidin-3-yl)isoindoline-1,3-dione] was tested, and the IC50 (MOLM-13 cells; [1]) was 100 to 1000 nM, the IC50 (MOLM-13 cells; [2]) was < 10 nM and the IC50 (MV4;11 cells; [3]) was 10 to 100 nM. The IC50 (MV4;11 cells; [4]) was < 10 nM.
For `CN(C)c1cccnc1-c1cn([C@H]2C[C@H](CNc3ccc4c(c3)C(=O)N(C3CCC(=O)NC3=O)C4=O)C2)nc1C1CC1` (stereo partly drawn) [GS-621, 5-(((trans-3-(3-Cyclopropyl-4-(3-(dimethylamino)pyridin-2-yl)-1H-pyrazol-1-yl)cyclobutyl)methyl)amino)-2-(2,6-dioxopiperidin-3-yl)isoindoline-1,3-dione], the IC50 (MOLM-13 cells; [1]) was 10 to 100 nM, the IC50 (MOLM-13 cells; [2]) was < 10 nM and the IC50 (MV4;11 cells; [3]) was 10 to 100 nM. For the same molecule, the IC50 (MV4;11 cells; [4]) was < 10 nM.
With `CC(C)n1ccc2cnc(-c3cn([C@H]4C[C@H](CNc5ccc6c(c5)C(=O)N(C5CCC(=O)NC5=O)C6=O)C4)nc3C3CC3)cc21` (stereo partly drawn) [GS-622, 5-(((trans-3-(3-Cyclopropyl-4-(1-isopropyl-1H-pyrrolo[3,2-c]pyridin-6-yl)-1H-pyrazol-1-yl)cyclobutyl)methyl)amino)-2-(2,6-dioxopiperidin-3-yl)isoindoline-1,3-dione] the IC50 (MOLM-13 cells; [1]) was 10 to 100 nM, the IC50 (MOLM-13 cells; [2]) was < 10 nM and the IC50 (MV4;11 cells; [3]) was 10 to 100 nM. For the same molecule, the IC50 (MV4;11 cells; [4]) was < 10 nM.
In the case of `CC(C)n1ccc2c(-c3cn([C@H]4C[C@H](CNc5ccc6c(c5)C(=O)N(C5CCC(=O)NC5=O)C6=O)C4)nc3C3CC3)nccc21` (stereo partly drawn) [GS-623, 5-(((trans-3-(3-Cyclopropyl-4-(1-isopropyl-1H-pyrrolo[3,2-c]pyridin-4-yl)-1H-pyrazol-1-yl)cyclobutyl)methyl)amino)-2-(2,6-dioxopiperidin-3-yl)isoindoline-1,3-dione], the IC50 (MOLM-13 cells; [1]) is reported as 10 to 100 nM, the IC50 (MOLM-13 cells; [2]) is reported as < 10 nM and the IC50 (MV4;11 cells; [3]) is reported as 10 to 100 nM. For the same molecule, the IC50 (MV4;11 cells; [4]) was < 10 nM.
In the case of `O=C1CCC(N2C(=O)c3ccc(NC[C@H]4C[C@H](n5cc(-c6cnc7c(C8CNC8)cccc7n6)c(C6CC6)n5)C4)cc3C2=O)C(=O)N1` (stereo partly drawn) [GS-624, 5-(((trans-3-(4-(5-(Azetidin-3-yl)quinoxalin-2-yl)-3-cyclopropyl-1H-pyrazol-1-yl)cyclobutyl)methyl)amino)-2-(2,6-dioxopiperidin-3-yl)isoindoline-1,3-dione], the IC50 (MOLM-13 cells; [1]) is reported as > 1000 nM, the IC50 (MOLM-13 cells; [2]) is reported as 10 to 100 nM and the IC50 (MV4;11 cells; [3]) is reported as 100 to 1000 nM. It also gave an IC50 (MV4;11 cells; [4]) of 10 to 100 nM.
`O=C1CCC(N2C(=O)c3ccc(NCCC[C@H]4C[C@H](n5cc(-c6nccc7cccnc67)c(C6CC6)n5)C4)cc3C2=O)C(=O)N1` (stereo partly drawn) [GS-625, 5-((3-(trans-3-(3-Cyclopropyl-4-(1,7-naphthyridin-8-yl)-1H-pyrazol-1-yl)cyclobutyl)propyl)amino)-2-(2,6-dioxopiperidin-3-yl)isoindoline-1,3-dione] gave an IC50 (MOLM-13 cells; [1]) of 100 to 1000 nM, an IC50 (MOLM-13 cells; [2]) of 10 to 100 nM and an IC50 (MV4;11 cells; [3]) of 10 to 100 nM. The IC50 (MV4;11 cells; [4]) was < 10 nM.
For `O=C1CCC(N2C(=O)c3ccc(NCCC[C@H]4C[C@H](n5cc(-c6nccc7[nH]ncc67)c(C6CC6)n5)C4)cc3C2=O)C(=O)N1` (stereo partly drawn) [GS-626, 5-((3-(trans-3-(3-Cyclopropyl-4-(1H-pyrazolo[4,3-c]pyridin-4-yl)-1H-pyrazol-1-yl)cyclobutyl)propyl)amino)-2-(2,6-dioxopiperidin-3-yl)isoindoline-1,3-dione], the IC50 (MOLM-13 cells; [1]) was > 1000 nM, the IC50 (MOLM-13 cells; [2]) was 10 to 100 nM and the IC50 (MV4;11 cells; [3]) was 10 to 100 nM. It also gave an IC50 (MV4;11 cells; [4]) of 10 to 100 nM.
`O=C1CCC(N2C(=O)c3ccc(CC[C@H]4C[C@H](n5cc(-c6cnc7ccccc7n6)c(C6CC6)n5)C4)cc3C2=O)C(=O)N1` (stereo partly drawn) [GS-627, 5-(2-(trans-3-(3-Cyclopropyl-4-(quinoxalin-2-yl)-1H-pyrazol-1-yl)cyclobutyl)ethyl)-2-(2,6-dioxopiperidin-3-yl)isoindoline-1,3-dione] was tested, and the IC50 (MOLM-13 cells; [1]) was > 1000 nM, the IC50 (MOLM-13 cells; [2]) was > 1000 nM and the IC50 (MV4;11 cells; [3]) was > 1000 nM. For the same molecule, the IC50 (MV4;11 cells; [4]) was > 1000 nM.
With `O=C1CCC(N2C(=O)c3ccc(NCCC[C@H]4C[C@H](n5cc(-c6nccc7cnccc67)c(C6CC6)n5)C4)cc3C2=O)C(=O)N1` (stereo partly drawn) [GS-628, 5-((3-(trans-3-(3-Cyclopropyl-4-(2,6-naphthyridin-1-yl)-1H-pyrazol-1-yl)cyclobutyl)propyl)amino)-2-(2,6-dioxopiperidin-3-yl)isoindoline-1,3-dione] the IC50 (MOLM-13 cells; [1]) was > 1000 nM, the IC50 (MOLM-13 cells; [2]) was 10 to 100 nM and the IC50 (MV4;11 cells; [3]) was > 1000 nM. It also gave an IC50 (MV4;11 cells; [4]) of 10 to 100 nM.
For `Cc1nc(-c2cn([C@H]3C[C@H](CCc4ccc5c(c4)C(=O)N(C4CCC(=O)NC4=O)C5=O)C3)nc2C2CC2)ccc1F` (stereo partly drawn) [GS-629, 5-(2-(trans-3-(3-Cyclopropyl-4-(5-fluoro-6-methylpyridin-2-yl)-1H-pyrazol-1-yl)cyclobutyl)ethyl)-2-(2,6-dioxopiperidin-3-yl)isoindoline-1,3-dione], the IC50 (MOLM-13 cells; [1]) was > 1000 nM, the IC50 (MOLM-13 cells; [2]) was 100 to 1000 nM and the IC50 (MV4;11 cells; [3]) was > 1000 nM. For the same molecule, the IC50 (MV4;11 cells; [4]) was 100 to 1000 nM.
In the case of `O=C1CCC(N2C(=O)c3ccc(NCCC[C@H]4C[C@H](n5cc(-c6nccc7ccncc67)c(C6CC6)n5)C4)cc3C2=O)C(=O)N1` (stereo partly drawn) [GS-630, 5-((3-(trans-3-(3-Cyclopropyl-4-(2,7-naphthyridin-1-yl)-1H-pyrazol-1-yl)cyclobutyl)propyl)amino)-2-(2,6-dioxopiperidin-3-yl)isoindoline-1,3-dione], the IC50 (MOLM-13 cells; [1]) is reported as > 1000 nM, the IC50 (MOLM-13 cells; [2]) is reported as < 10 nM and the IC50 (MV4;11 cells; [3]) is reported as 100 to 1000 nM. For the same molecule, the IC50 (MV4;11 cells; [4]) was < 10 nM.
Work on `O=C1CCC(N2C(=O)c3ccc(NC[C@H]4C[C@H](n5cc(C6CCCC6)c(C6CC6)n5)C4)cc3C2=O)C(=O)N1` (stereo partly drawn) [GS-631, 5-(((trans-3-(4-Cyclopentyl-3-cyclopropyl-1H-pyrazol-1-yl)cyclobutyl)methyl)amino)-2-(2,6-dioxopiperidin-3-yl)isoindoline-1,3-dione] yielded an IC50 (MOLM-13 cells; [1]) of 100 to 1000 nM, an IC50 (MOLM-13 cells; [2]) of 10 to 100 nM and an IC50 (MV4;11 cells; [3]) of 100 to 1000 nM. For the same molecule, the IC50 (MV4;11 cells; [4]) was 10 to 100 nM.
In the case of `O=C1CCC(N2C(=O)c3ccc(NC[C@H]4C[C@H](n5cc(C6CC6)c(C6CC6)n5)C4)cc3C2=O)C(=O)N1` (stereo partly drawn) [GS-632, 5-(((trans-3-(3,4-Dicyclopropyl-1H-pyrazol-1-yl)cyclobutyl)methyl)amino)-2-(2,6-dioxopiperidin-3-yl)isoindoline-1,3-dione], the IC50 (MOLM-13 cells; [1]) is reported as > 1000 nM, the IC50 (MOLM-13 cells; [2]) is reported as 100 to 1000 nM and the IC50 (MV4;11 cells; [3]) is reported as 100 to 1000 nM. The IC50 (MV4;11 cells; [4]) was 100 to 1000 nM.
With `CC1CCCCC1c1cn([C@H]2C[C@H](CNc3ccc4c(c3)C(=O)N(C3CCC(=O)NC3=O)C4=O)C2)nc1C1CC1` (stereo partly drawn) [GS-633, 5-(((trans-3-(3-Cyclopropyl-4-(2-methylcyclohexyl)-1H-pyrazol-1-yl)cyclobutyl)methyl)amino)-2-(2,6-dioxopiperidin-3-yl)isoindoline-1,3-dione] the IC50 (MOLM-13 cells; [1]) was 10 to 100 nM, the IC50 (MOLM-13 cells; [2]) was 10 to 100 nM and the IC50 (MV4;11 cells; [3]) was 10 to 100 nM. The IC50 (MV4;11 cells; [4]) was < 10 nM.
For `O=C1CCC(N2C(=O)c3ccc(NC[C@H]4C[C@H](n5cc(C6CCCCC6O)c(C6CC6)n5)C4)cc3C2=O)C(=O)N1` (stereo partly drawn) [GS-634, 5-(((trans-3-(3-Cyclopropyl-4-(2-hydroxycyclohexyl)-1H-pyrazol-1-yl)cyclobutyl)methyl)amino)-2-(2,6-dioxopiperidin-3-yl)isoindoline-1,3-dione], the IC50 (MOLM-13 cells; [1]) was 100 to 1000 nM, the IC50 (MOLM-13 cells; [2]) was 10 to 100 nM and the IC50 (MV4;11 cells; [3]) was 10 to 100 nM. For the same molecule, the IC50 (MV4;11 cells; [4]) was < 10 nM.
